Values joined by “and” are separate entries in the source; they are usually repeats but may differ in a detail not shown here. Equal entries are not always repeated. Inconclusive results and toxic doses are left out. Cut-off read from the data, not from the text of the source: active = T/C of 150% or more; inactive = T/C below 125%.
System: L1210 leukemia ip in BDF1 mice, survival T/C
Assay: NCI In Vivo Anticancer Drug Screen. Data for tumor model L1210 Leukemia (intraperitoneal) in B6D2F1 (BDF1) mice
Details: higher = longer survival
Summary of the method: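 Tumor was transplanted into mice, which were then dosed with test compound or vehicle alone. Survival was recorded for each group, and the treated figure was expressed relative to the control figure.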

Measured: T/C

N=[N+]=CC(=O)OCC(N)C(=O)O (centres undefined)
inactive: endpoint: mean survival time, dose: 0.06 mg/kg/injection, schedule: Q#A X Z (ip), vehicle: saline 117 % of control | endpoint: mean survival time, dose: 0.43 mg/kg/injection, schedule: Q01DX009 (ip), vehicle: saline 111 % of control | endpoint: mean survival time, dose: 0.5 mg/kg/injection, schedule: Q01DX010 (ip), vehicle: saline 119 % of control | endpoint: mean survival time, dose: 0.5 mg/kg/injection, schedule: Q01DX Z (ip), vehicle: saline 117 % of control and 118 % of control | endpoint: mean survival time, dose: 0.85 mg/kg/injection, schedule: Q01DX009 (ip), vehicle: saline 105 % of control and 111 % of control | endpoint: mean survival time, dose: 1.0 mg/kg/injection, schedule: Q01DX Z (ip), vehicle: saline 115 % of control | endpoint: mean survival time, dose: 1.3 mg/kg/injection, schedule: Q04DX002 (ip), vehicle: saline 98 % of control and 112 % of control | endpoint: mean survival time, dose: 1.7 mg/kg/injection, schedule: Q01DX009 (ip), vehicle: saline 115 % of control | endpoint: mean survival time, dose: 1.8 mg/kg/injection, schedule: Q01DX Z (ip), vehicle: carboxymethylcellulose (CMC) 108 % of control and 120 % of control | endpoint: mean survival time, dose: 2.0 mg/kg/injection, schedule: Q01DX005 (ip), vehicle: saline 114 % of control | endpoint: mean survival time, dose: 2.0 mg/kg/injection, schedule: Q01DX Z (oral), vehicle: saline 110 % of control | endpoint: mean survival time, dose: 2.0 mg/kg/injection, schedule: Q01DX Z (sc), vehicle: saline 118 % of control | endpoint: mean survival time, dose: 2.5 mg/kg/injection, schedule: Q04DX002 (ip), vehicle: saline 106 % of control and 110 % of control | endpoint: mean survival time, dose: 3.5 mg/kg/injection, schedule: Q07DX003 (ip), vehicle: saline 115 % of control | endpoint: mean survival time, dose: 4.0 mg/kg/injection, schedule: Q01DX009 (ip), vehicle: saline 121 % of control | endpoint: mean survival time, dose: 4.0 mg/kg/injection, schedule: Q01DX Z (im), vehicle: saline 118 % of control | endpoint: mean survival time, dose: 4.0 mg/kg/injection, schedule: Q01DX Z (sc), vehicle: saline 119 % of control | endpoint: mean survival time, dose: 4.0 mg/kg/injection, schedule: Q03HX024 (oral), vehicle: saline 117 % of control | endpoint: mean survival time, dose: 4.0 mg/kg/injection, schedule: Q## X003 (ip), vehicle: saline 106 % of control | endpoint: mean survival time, dose: 5.0 mg/kg/injection, schedule: Q04DX002 (ip), vehicle: saline 117 % of control and 121 % of control | endpoint: mean survival time, dose: 7.0 mg/kg/injection, schedule: Q07DX003 (ip), vehicle: saline 117 % of control | endpoint: mean survival time, dose: 8.0 mg/kg/injection, schedule: Q01DX009 (ip), vehicle: saline 121 % of control | endpoint: mean survival time, dose: 8.0 mg/kg/injection, schedule: Q01DX009 (oral), vehicle: saline 105 % of control and 107 % of control | endpoint: mean survival time, dose: 8.0 mg/kg/injection, schedule: Q04DX003 (ip), vehicle: saline 113 % of control | endpoint: mean survival time, dose: 8.0 mg/kg/injection, schedule: Q## X002 (ip), vehicle: saline 102 % of control | endpoint: mean survival time, dose: 8.0 mg/kg/injection, schedule: Q## X003 (ip), vehicle: saline 107 % of control and 113 % of control | endpoint: mean survival time, dose: 8.0 mg/kg/injection, schedule: Q## X003 (oral), vehicle: saline 97 % of control and 101 % of control | endpoint: mean survival time, dose: 8.0 mg/kg/injection, schedule: Q## X024 (oral), vehicle: saline 106 % of control | endpoint: mean survival time, dose: 14.0 mg/kg/injection, schedule: Q01DX001 (ip), vehicle: saline 120 % of control and 121 % of control | endpoint: mean survival time, dose: 14.0 mg/kg/injection, schedule: Q07DX003 (ip), vehicle: saline 117 % of control | endpoint: mean survival time, dose: 16.0 mg/kg/injection, schedule: Q01DX001 (ip), vehicle: saline 108 % of control | endpoint: mean survival time, dose: 16.0 mg/kg/injection, schedule: Q01DX001 (sc), vehicle: saline 98 % of control | endpoint: mean survival time, dose: 16.0 mg/kg/injection, schedule: Q01DX006 (iv), vehicle: saline 107 % of control | endpoint: mean survival time, dose: 16.0 mg/kg/injection, schedule: Q04DX003 (ip), vehicle: saline 112 % of control | endpoint: mean survival time, dose: 16.0 mg/kg/injection, schedule: Q04DX003 (oral), vehicle: saline 101 % of control and 104 % of control | endpoint: mean survival time, dose: 16.0 mg/kg/injection, schedule: Q## X002 (ip), vehicle: saline 103 % of control | endpoint: mean survival time, dose: 16.0 mg/kg/injection, schedule: Q## X003 (ip), vehicle: saline 116 % of control | endpoint: mean survival time, dose: 16.0 mg/kg/injection, schedule: Q## X003 (oral), vehicle: saline 111 % of control and 113 % of control | endpoint: mean survival time, dose: 16.0 mg/kg/injection, schedule: Q## X024 (oral), vehicle: saline 97 % of control and 104 % of control | endpoint: mean survival time, dose: 18.0 mg/kg/injection, schedule: Q01DX014 (ip), vehicle: saline 117 % of control | endpoint: mean survival time, dose: 27.0 mg/kg/injection, schedule: Q01DX001 (ip), vehicle: saline 104 % of control | endpoint: mean survival time, dose: 28.0 mg/kg/injection, schedule: Q01DX001 (ip), vehicle: saline 120 % of control | endpoint: mean survival time, dose: 28.0 mg/kg/injection, schedule: Q07DX003 (ip), vehicle: saline 120 % of control | endpoint: mean survival time, dose: 32.0 mg/kg/injection, schedule: Q01DX001 (ip), vehicle: saline 111 % of control | endpoint: mean survival time, dose: 32.0 mg/kg/injection, schedule: Q01DX001 (sc), vehicle: saline 105 % of control | endpoint: mean survival time, dose: 32.0 mg/kg/injection, schedule: Q01DX009 (ip), vehicle: saline 102 % of control and 119 % of control | endpoint: mean survival time, dose: 32.0 mg/kg/injection, schedule: Q01DX009 (sc), vehicle: saline 109 % of control | endpoint: mean survival time, dose: 32.0 mg/kg/injection, schedule: Q01DX Z (ip), vehicle: saline 95 % of control | endpoint: mean survival time, dose: 32.0 mg/kg/injection, schedule: Q01DX Z (sc), vehicle: saline 118 % of control | endpoint: mean survival time, dose: 32.0 mg/kg/injection, schedule: Q04DX003 (ip), vehicle: saline 115 % of control | endpoint: mean survival time, dose: 32.0 mg/kg/injection, schedule: Q04DX003 (oral), vehicle: saline 110 % of control | endpoint: mean survival time, dose: 32.0 mg/kg/injection, schedule: Q## X002 (ip), vehicle: saline 120 % of control | endpoint: mean survival time, dose: 32.0 mg/kg/injection, schedule: Q## X003 (ip), vehicle: saline 117 % of control | endpoint: mean survival time, dose: 32.0 mg/kg/injection, schedule: Q## X003 (oral), vehicle: saline 109 % of control and 120 % of control | endpoint: mean survival time, dose: 32.0 mg/kg/injection, schedule: Q## X024 (oral), vehicle: saline 121 % of control | endpoint: mean survival time, dose: 35.0 mg/kg/injection, schedule: Q02DX010 (ip), vehicle: other 95 % of control | endpoint: mean survival time, dose: 36.0 mg/kg/injection, schedule: Q02DX010 (ip), vehicle: other 110 % of control | endpoint: mean survival time, dose: 40.0 mg/kg/injection, schedule: Q01DX001 (ip), vehicle: saline 112 % of control | endpoint: mean survival time, dose: 40.0 mg/kg/injection, schedule: Q01DX Z (ip), vehicle: saline 99 % of control | endpoint: mean survival time, dose: 52.0 mg/kg/injection, schedule: Q02DX010 (ip), vehicle: carboxymethylcellulose (CMC) 107 % of control | endpoint: mean survival time, dose: 54.0 mg/kg/injection, schedule: Q02DX010 (ip), vehicle: other 106 % of control | endpoint: mean survival time, dose: 60.0 mg/kg/injection, schedule: Q01DX001 (ip), vehicle: saline 121 % of control | endpoint: mean survival time, dose: 64.0 mg/kg/injection, schedule: Q01DX001 (ip), vehicle: saline 110 % of control | endpoint: mean survival time, dose: 64.0 mg/kg/injection, schedule: Q01DX001 (oral), vehicle: saline 103 % of control | endpoint: mean survival time, dose: 64.0 mg/kg/injection, schedule: Q01DX001 (sc), vehicle: saline 110 % of control | endpoint: mean survival time, dose: 64.0 mg/kg/injection, schedule: Q04DX003 (ip), vehicle: saline 104 % of control and 112 % of control | endpoint: mean survival time, dose: 64.0 mg/kg/injection, schedule: Q04DX003 (oral), vehicle: saline 106 % of control and 120 % of control | endpoint: mean survival time, dose: 64.0 mg/kg/injection, schedule: Q## X002 (ip), vehicle: saline 118 % of control | endpoint: mean survival time, dose: 64.0 mg/kg/injection, schedule: Q## X003 (oral), vehicle: saline 117 % of control and 119 % of control | endpoint: mean survival time, dose: 72.0 mg/kg/injection, schedule: Q## X032 (ip), vehicle: saline 115 % of control and 116 % of control | endpoint: mean survival time, dose: 80.0 mg/kg/injection, schedule: Q04DX002 (ip), vehicle: saline 104 % of control | endpoint: mean survival time, dose: 96.0 mg/kg/injection, schedule: Q03DX006 (ip), vehicle: saline 102 % of control | endpoint: mean survival time, dose: 108.0 mg/kg/injection, schedule: Q## X032 (ip), vehicle: saline 101 % of control | endpoint: mean survival time, dose: 112.0 mg/kg/injection, schedule: Q01DX001 (ip), vehicle: saline 114 % of control | endpoint: mean survival time, dose: 128.0 mg/kg/injection, schedule: Q01DX001 (sc), vehicle: saline 105 % of control | endpoint: mean survival time, dose: 128.0 mg/kg/injection, schedule: Q04DX003 (oral), vehicle: saline 110 % of control | endpoint: mean survival time, dose: 128.0 mg/kg/injection, schedule: Q## X024 (ip), vehicle: saline 112 % of control | endpoint: median survival time, dose: 0.25 mg/kg/injection, schedule: Q03HX024 (ip), vehicle: water 105 % of control | endpoint: median survival time, dose: 2.0 mg/kg/injection, schedule: Q01DX009 (ip), vehicle: water 120 % of control
